According to PMC5072737, “Heterologous Expression and Delivery of Biologically Active Exendin-4 by Lactobacillus paracasei L14” (PLoS ONE, 2016):

Legend:
Caco-2 cell monolayer = experiment: Transport of exendin-4 through Caco-2 monolayer; assay type: in vitro ADME; conditions: Caco-2 monolayer (~21 days, transwell 0.4 μm, 4.67 cm^2), apical to basolateral, s-DMEM without antibiotics, 37°C; first 3 h; ELISA; mean ± SD, n = 3
Procedure: Caco-2 cells (10–20 passages) were cultivated in 25-cm^2 flasks in DMEM supplemented with 10% (v/v) FBS, 1% (v/v) non-essential amino acids and 100 IU/ml penicillin–100μg/ml streptomycin (s-DMEM) at 37°C in an atmosphere of 5% CO2 and high humidity. Upon 80% confluence, cells were harvested using 0.25% trypsin EDTA and seeded on the polyester inserts (0.4 μm pore size, 24 mm diameter, 4.67 cm^2 grown surface, Costar, Corning, NY) in 6-well transwell plates at a density of 10^5 cell/cm^2 and incubated under normal cell culture conditions. The culture medium was replaced every other day for the first week and then every day until it was ready for transport studies when the monolayer became confluent and the transepithelial electrical resistance (TEER) reading reached a plateau (about 21 days). The TEER was monitored according to the method described by Hubatsch et al.
After the Caco-2 monolayer cell became confluent, the culture medium was washed twice by PBS (pH 7.4). […] Caco-2 cell viability was then measured by trypan blue assay at 0, 2, 4 and 6 h after the addition of L14/pMG76e-exendin-4 cells. […] At predetermined time points, 100 and 200 μl supernatant samples were withdrawn from the apical and basolateral sides, respectively, for exendin-4 quantification by ELISA and replaced with an equal volume of s-DMEM without the antibiotics. […]

INS-1 cells [1] = experiment: Staurosporine-induced apoptosis assay (Annexin V-PI, flow cytometry) in INS-1 cells; assay type: cell-based, rat; conditions: pretreatment with the agent (none for staurosporine alone), then staurosporine 1 μmol/l for 1 h, n = 3
Procedure: INS-1 cells were seeded in 96-well plates at a density of 2 × 10^4 cells per well. After 36 h incubation, the cells were grown to nearly 60% confluence and the medium was replaced with RPMI 1640–exendin-4 medium diluted 1:1 (v/v) with fresh RPMI 1640 containing 10% FBS (100 μl per well). Standard GLP-1 in RPMI 1640 medium (100 nmol/l) was used as a positive control and pure RPMI 1640 medium was used as a blank control. The mixture was incubated for 24 h. The PI3K (phosphatidylinositol-3-kinase) antagonist treatment cells were preincubated with wortmannin (100 nmol/l) for 15 min before the treatment. The number of viable cells was then analyzed by cell counting kit-8 (CCK-8) assay (Biyuntian Biotech Co. Ltd.) based on the formation of formazan with sensitive changes in OD450 values. […] The absorbance was read at 450 nm using a Multiskan MK3 ELISA plate reader to determine the in vitro cell proliferation. For apoptosis assays, staurosporine (1 μmol/l) was added in all treatment groups for 1 h, after which the cells were treated with Annexin V-PI (propidium iodide) cell apoptosis kit (Biyuntian Biotech Co. Ltd.) and apoptosis was measured by flow cytometry using a FACScan (Becton Dickinson).

Insulin (Ins1 and Ins2) = experiment: qRT-PCR of insulin gene mRNA expression in INS-1 cells; assay type: cell-based, Rattus norvegicus; conditions: INS-1 cells treated 2 h, ΔΔCT, β-actin reference, n = 3
Procedure: (§1) INS-1 cells were seeded in 24-well plates at a density of 10^5 cells per well and grown to 100% confluence before the assay. The medium was changed 24 h before the assay. For the assay, cells were quickly rinsed in 1 ml Hank's balanced salt solution (HBSS) with 3 mM glucose followed by a 2 h preincubation with 1 ml of the same buffer. Then the buffer was discarded, RPMI 1640–exendin-4 medium diluted 1:1 (v/v) with fresh medium plus 5 mM glucose (600 μl per well) were added, and the mixture was incubated for 2 h. Standard GLP-1 (100 nmol/l) in RPMI 1640 medium was used as a positive control. […] At the end of the incubation, supernatant was collected and centrifuged for 10 min at 4000 × g at 4°C and insulin concentration was determined by ELISA kit (Millipore, St. Charles, MO, USA). The cells were collected to analyze mRNA expression of pancreatic duodenal homeobox-1 (PDX-1) and insulin gene (Insulin).
(§2) Total RNA was isolated from INS-1 cells using TRIzol Reagent (Invitrogen). Reverse transcription was performed using PrimeScript II first-strand cDNA synthesis kit (Takara, China), containing 1 μg of total RNA as the template. qRT-PCR was carried out using a SYBR Green assay kit (Tiangen). Specific primers for PDX-1, Insulin and the internal control gene β-actin (Actb) from Rattus norvegicus were designed with Primer Premier 5 software (Table 2). […]

[2] = native GLP-1, rapid inactivation by DPP-IV; cited from earlier work
Text: Glucagon-like peptide-1 (GLP-1) is a potent incretin produced by L-cells of the distal ileum and colon in response to nutrient intake. It has a variety of antidiabetic effects that are mediated through β-cells in pancreatic islets and peripheral tissues. These include not only the promotion of glucose-dependent insulin secretion and inhibition of glucagon secretion, but also inhibition of food intake and body weight gain by delaying gastric emptying, increasing β-cell mass, and enhancing insulin sensitivity. However, despite its favorable antidiabet ...

INS-1 cells [3] = experiment: Insulin secretion assay in INS-1 cells; assay type: cell-based, rat; conditions: 5 mM glucose
Procedure: as §1, with “buffer.” for “buffer. Then the buffer was discarded, RPMI 1640–exendin-4 medium diluted 1:1 (v/v) with fresh medium plus 5 mM glucose (600 μl per well) were added, and the mixture was incubated for 2 h. Standard GLP-1 (100 nmol/l) in RPMI 1640 medium was used as a positive control.”

PDX-1 = experiment: qRT-PCR of PDX-1 mRNA expression in INS-1 cells; assay type: cell-based, Rattus norvegicus; conditions: INS-1 cells treated 2 h, ΔΔCT, β-actin reference, n = 3
Procedure: as §1, §2

Row | Molecule | Exendin-4 transport rate through the cell monolayer (Caco-2 cell monolayer) [pMol cm^-2 h^-1] | Number of earliest-stage apoptotic cells, % of the control with no staurosporine (INS-1 cells [1]) [%] | Insulin mRNA expression, fold of the blank control (Insulin (Ins1 and Ins2)) [fold] | Half-life in vivo [2] [min] | Insulin secretion, higher than the blank control (RPMI 1640 only) (INS-1 cells [3]; 2 h, blank control 66.5 ± 0.5 ng/ml) [%] | Insulin secretion (insulin concentration in supernatant) (INS-1 cells [3]; 2 h incubation, conditioned medium diluted 1:1 with fresh medium, GLP-1 at 100 nmol/l, insulin ELISA, mean ± SD, n = 3) [ng/mL] | PDX-1 mRNA expression, fold of the blank control (PDX-1) [fold]
1 | exendin-4 [standard exendin-4] | 0.15 ± 0.013 | – | – | – | – | – | –
2 | Glucagon-like peptide-1 [GLP-1] | – | 170 | 1.7 | 1 to 2 | 7 | 71.4 ± 0.7 | 1.9
3 | CN[C@@H]1C[C@H]2O[C@@](C)([C@@H]1OC)n1c3ccccc3c3c4c(c5c6ccccc6n2c5c31)C(=O)NC4 [staurosporine] | – | 264.3 | – | – | – | – | –
